Reference: US8686041B2, “Inhibition of ornithine aminotransferase for the treatment of proliferative disorders” (Hadasit Medical Research Services & Development, Ltd., priority 2006, dated 2014)

What was measured:
HEP3B = assay: αFP secretion by HCC cell lines with Gabaculine analogue 8; type: cell-based, human; conditions: 48 hours
Procedure: (§1) 1×10^5 cells/well of each of Hep3b and HepG2 hepatocellular carcinoma cell lines were plated in triplicate and incubated at 37° C. Gabaculine analogue 8 was added to wells at varying concentrations (0.1 μg/ml, 1 μg/ml, 10 μg/ml and 50 μg/ml). Cells returned to incubator for further incubation of 48 hours. In the fourth day of the experiment, one ml of supernatant from each well was transferred to eppendorf tubes and analyzed for αFP concentration. αFP levels were checked using the Abbott Diagnostic AxSYM system. Encouraged by the in vitro and in vivo results of inhibiting OAT using Gabaculine, the inventors next examined the in vitro effect of a further OAT inhibitor, Gabaculine analogue 8 (LHJ-II-79), on AFP secretion from two different HCC cell lines. Therefore, Hep3b and HepG2 hepatocellular carcinoma cell lines were detached from culture dishes using trypsin-EDTA, re-plated in triplicates in 12 well culture dishes (1×10^5 cells/well) and incubated at 37° C. Gabaculine analogue 8 was added to wells at varying concentrations (0.1 μg/ml, 1 μg/ml, 10 μg/ml and 50 μg/ml). After 48 hours, cell supernatant was analyzed for AFP concentration.

HepG2 = assay: as above; type: cell-based, human; conditions: 48 hours
Procedure: as §1

[1] = 0.1-50 μg/ml, effect concentration dependent

## Cl.NC1CC(C(=O)O)CC1=C=C(C(F)(F)F)C(F)(F)F (stereo not shown) [analogue 8, 1-carboxy-3-amino-4-bis(trifluoromethyl)vinylidene cyclopentane hydrochloride]
HEP3B; [1]
  AFP secretion by the cells, in words: significant reduction of AFP secretion
HEP3B; EXP. I, 10 ug/ml, 1:5 dil, CONTROL 42.52
  AVG results AF: 37.96 ng/mL
HEP3B; EXP. I, 50 ug/ml, 1:5 dil, CONTROL 42.52
  AVG results AF: 18.52 ng/mL
HEP3B; EXP. II, 0.1 ug/ml, 1:5 dil, CONTROL 13.42
  AVG results AF: 12.66 ng/mL
HEP3B; EXP. II, 1 ug/ml, 1:5 dil, CONTROL 13.42
  AVG results AF: 11.92 ng/mL
HEP3B; EXP. II, 10 ug/ml, 1:5 dil, CONTROL 13.42
  AVG results AF: 9.63 ng/mL
HEP3B; EXP. II, 50 ug/ml, 1:5 dil, CONTROL 13.42
  AVG results AF: 9.37 ng/mL
HEP3B; EXP. III, 10 ug/ml, 1:5 dil, CONTROL 11.39
  AVG results AF: 10.97 ng/mL
HEP3B; EXP. III, 50 ug/ml, 1:5 dil, CONTROL 11.39
  AVG results AF: 6.98 ng/mL
HEP3B; EXP. IV, 10 ug/ml, 1:2 dil, CONTROL 18.45
  AVG results AF: 13.73 ng/mL
HEP3B; EXP. IV, 50 ug/ml, 1:2 dil, CONTROL 18.45
  AVG results AF: 11.30 ng/mL
HepG2; [1]
  AFP secretion by the cells, in words: significant reduction of AFP secretion
HepG2; EXP. I, 10 ug/ml, 1:100 dil, CONTROL 34.19
  AVG results AF: 37.98 ng/mL
HepG2; EXP. I, 50 ug/ml, 1:100 dil, CONTROL 34.19
  AVG results AF: 23.54 ng/mL
HepG2; EXP. II, 0.1 ug/ml, 1:100 dil, CONTROL 11.93
  AVG results AF: 11.92 ng/mL
HepG2; EXP. II, 1 ug/ml, 1:100 dil, CONTROL 11.93
  AVG results AF: 12.85 ng/mL
HepG2; EXP. II, 10 ug/ml, 1:100 dil, CONTROL 11.93
  AVG results AF: 11.38 ng/mL
HepG2; EXP. II, 50 ug/ml, 1:100 dil, CONTROL 11.93
  AVG results AF: 8.54 ng/mL
HepG2; EXP. III, 10 ug/ml, 1:100 dil, CONTROL 12.07
  AVG results AF: 10.67 ng/mL
HepG2; EXP. III, 50 ug/ml, 1:100 dil, CONTROL 12.07
  AVG results AF: 7.57 ng/mL
HepG2; EXP. IV, 10 ug/ml, 1:50 dil, CONTROL 13.32
  AVG results AF: 12.74 ng/mL
HepG2; EXP. IV, 50 ug/ml, 1:50 dil, CONTROL 13.32
  AVG results AF: 8.94 ng/mL
